According to US20240269067A1 (GEL4MED, INC., priority 2020, published 2024):

Test: Net charge and isoelectric point of peptide
Format: physicochemical
Details: pH 7
From the text: The peptide may be purified. For example, the peptide may be lyophilized. […] Other peptides are within the scope of the disclosure.
Exemplary peptides having a charge of +5 to +9 include […](d)[…], […](d)[…], and […](d)[…]. In other embodiments, the purified peptide may be substantially neutral. […] Net charge may be selected by peptide design. Design of electrostatic charge in the peptide hydrogel may allow control of charge interaction with cell membrane and proteins.

With VEVSVSVEV(d)PPTEVSVEVEV the net charge was “net negative charge”.
